Measurements from article PMC3752901 (Clinical cancer research : an official journal of the …, 2013).
Like-named read-outs stand apart in the source and are kept apart here.

Experiments:
human ABCC4 = target: T1, human ABCC4 (Homo sapiens, UniProt O15439); conditions: 5 min, 1 μM
T1 sequence (O15439 1-1325): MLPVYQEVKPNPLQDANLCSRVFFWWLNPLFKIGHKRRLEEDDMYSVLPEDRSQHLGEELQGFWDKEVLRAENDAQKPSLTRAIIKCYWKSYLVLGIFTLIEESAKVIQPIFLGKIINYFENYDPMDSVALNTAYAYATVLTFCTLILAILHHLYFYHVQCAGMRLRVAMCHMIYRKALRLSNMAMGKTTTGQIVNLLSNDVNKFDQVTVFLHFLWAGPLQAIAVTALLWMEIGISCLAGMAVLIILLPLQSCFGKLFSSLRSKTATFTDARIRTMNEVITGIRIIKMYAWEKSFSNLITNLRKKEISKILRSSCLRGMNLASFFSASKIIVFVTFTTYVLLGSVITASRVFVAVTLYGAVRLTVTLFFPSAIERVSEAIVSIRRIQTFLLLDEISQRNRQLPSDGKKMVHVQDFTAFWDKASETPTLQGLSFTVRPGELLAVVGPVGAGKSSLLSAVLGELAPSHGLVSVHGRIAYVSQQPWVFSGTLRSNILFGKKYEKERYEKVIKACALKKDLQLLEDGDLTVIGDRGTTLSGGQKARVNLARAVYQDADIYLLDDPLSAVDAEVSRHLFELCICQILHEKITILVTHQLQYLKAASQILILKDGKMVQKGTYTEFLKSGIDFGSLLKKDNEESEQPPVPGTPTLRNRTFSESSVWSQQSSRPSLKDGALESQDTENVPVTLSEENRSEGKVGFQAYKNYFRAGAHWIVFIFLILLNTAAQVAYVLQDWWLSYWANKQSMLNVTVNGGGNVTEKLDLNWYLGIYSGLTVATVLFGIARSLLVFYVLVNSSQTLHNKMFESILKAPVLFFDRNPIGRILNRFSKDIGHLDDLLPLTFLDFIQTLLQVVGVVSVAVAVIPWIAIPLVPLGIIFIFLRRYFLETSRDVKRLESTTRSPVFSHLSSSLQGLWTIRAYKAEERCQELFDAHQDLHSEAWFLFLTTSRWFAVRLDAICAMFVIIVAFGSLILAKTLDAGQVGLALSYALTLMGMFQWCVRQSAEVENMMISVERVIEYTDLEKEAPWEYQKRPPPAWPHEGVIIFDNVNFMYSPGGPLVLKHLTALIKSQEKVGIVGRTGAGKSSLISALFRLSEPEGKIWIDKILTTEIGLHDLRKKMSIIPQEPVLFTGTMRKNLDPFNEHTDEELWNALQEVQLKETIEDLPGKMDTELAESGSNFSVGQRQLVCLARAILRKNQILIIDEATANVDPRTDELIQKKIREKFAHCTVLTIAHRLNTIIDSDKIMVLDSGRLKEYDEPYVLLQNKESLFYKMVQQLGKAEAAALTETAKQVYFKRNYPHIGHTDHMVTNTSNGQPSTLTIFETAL

[1] = cited from earlier work
mouse Abcc4 = target: T2, mouse Abcc4 (Mus musculus, UniProt E9Q236); test: Accumulation/efflux in Saos-2 cells transfected with Abcc4; conditions: 100 μM, 4-h incubation
T2 sequence (E9Q236 1-1325): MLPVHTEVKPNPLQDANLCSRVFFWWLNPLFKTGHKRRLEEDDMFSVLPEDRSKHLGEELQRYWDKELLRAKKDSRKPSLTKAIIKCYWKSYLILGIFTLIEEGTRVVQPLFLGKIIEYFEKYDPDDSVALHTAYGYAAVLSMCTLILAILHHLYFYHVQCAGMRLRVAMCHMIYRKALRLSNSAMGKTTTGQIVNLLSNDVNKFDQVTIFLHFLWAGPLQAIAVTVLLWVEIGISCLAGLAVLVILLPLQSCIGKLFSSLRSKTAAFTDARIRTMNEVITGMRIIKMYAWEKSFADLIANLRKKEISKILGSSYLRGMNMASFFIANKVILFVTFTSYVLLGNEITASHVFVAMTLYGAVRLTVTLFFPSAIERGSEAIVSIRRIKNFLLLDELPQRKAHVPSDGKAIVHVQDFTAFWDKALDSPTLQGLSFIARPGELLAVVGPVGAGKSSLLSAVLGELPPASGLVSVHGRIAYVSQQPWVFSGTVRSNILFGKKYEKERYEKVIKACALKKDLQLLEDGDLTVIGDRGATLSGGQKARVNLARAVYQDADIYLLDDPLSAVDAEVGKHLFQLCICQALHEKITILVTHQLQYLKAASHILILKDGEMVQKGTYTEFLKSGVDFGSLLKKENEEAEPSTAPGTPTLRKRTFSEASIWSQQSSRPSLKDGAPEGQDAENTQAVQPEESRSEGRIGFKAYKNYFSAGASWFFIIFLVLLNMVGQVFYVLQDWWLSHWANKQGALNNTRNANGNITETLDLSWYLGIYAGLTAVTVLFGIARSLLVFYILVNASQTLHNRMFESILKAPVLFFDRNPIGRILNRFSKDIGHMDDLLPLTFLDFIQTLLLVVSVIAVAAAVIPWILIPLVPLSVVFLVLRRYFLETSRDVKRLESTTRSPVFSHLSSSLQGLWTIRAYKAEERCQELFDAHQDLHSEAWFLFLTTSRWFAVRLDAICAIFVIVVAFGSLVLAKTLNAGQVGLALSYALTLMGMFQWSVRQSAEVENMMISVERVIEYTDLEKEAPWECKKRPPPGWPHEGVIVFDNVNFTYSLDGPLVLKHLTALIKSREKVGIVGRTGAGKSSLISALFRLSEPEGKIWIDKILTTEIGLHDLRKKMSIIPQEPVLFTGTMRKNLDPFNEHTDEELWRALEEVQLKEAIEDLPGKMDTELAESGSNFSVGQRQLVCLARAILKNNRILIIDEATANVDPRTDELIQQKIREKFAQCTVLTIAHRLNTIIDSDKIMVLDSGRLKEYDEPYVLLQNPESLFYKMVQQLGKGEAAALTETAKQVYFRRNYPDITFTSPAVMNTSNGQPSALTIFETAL

## Cc1nc(Nc2ncc(C(=O)Nc3c(C)cccc3Cl)s2)cc(N2CCN(CCO)CC2)n1 [dasatinib, Dasatinib]
Human ABCC4
  accumulation in ABCC4-overexpressing vesicles compared to control vesicles: 3.0 fold
[1]; adult patients
  coefficient of variation in AUC: > 50%
[1]; pediatric patient population
  coefficient of variation in AUC: ≤ 46%
Mouse Abcc4
  transport by mouse Abcc4 (accumulation in Saos-2 cells overexpressing Abcc4 compared to control cells): significantly reduced accumulation
